Measured values: US9284272B2, “Inhibitors of histone methyltransferase G9a” (AbbVie Inc., priority 2014, dated 2016)

Tests used:
[1] = Cytotoxicity, CellTiter Glo; format: cell-based; settings: human, LN229 cells, 5-day proliferation
[2] = Cytotoxicity, CellTiter Glo; format: cell-based; settings: human, H929 cells, 5-day proliferation
[3] = Cytotoxicity, CellTiter Glo; format: cell-based; settings: human, LNCap cells, 5-day proliferation
[4] = system: subcutaneous MV4;11 xenografts; experiment: In vivo efficacy study, MV4;11 xenograft tumor volume; set-up: species or system SCID/bg mice; settings: 30 mg/kg/day osmotic mini-pump for 14 days, compared to vehicle
Protocol: The efficacy of the compound of Example 7 was further examined by monitoring tumor volume during treatment with the compound of Example 7. Subcutaneous MV4;11 xenografts were implanted in SCID/bg mice and allowed to grow to 200 mm^3. […] Tumors were measured at the indicated time points (i.e., from 20 days to 55 days post-inoculation of the mice with the MV4;11 cells) and tumor growth was plotted as a function of time (FIG. 9).

[5] = Cytotoxicity, CellTiter Glo; format: cell-based; settings: human, K562 cells, 5-day proliferation
[6] = PK/PD study, plasma and tissue concentrations; format: in vivo, SCID/bg mice; settings: 30 mg/kg/day osmotic mini-pump, samples at 2, 7, 14 days
Description: (§1) Specifically, subcutaneous MV4;11 xenografts were implanted in SCID/bg mice and allowed to grow to 200 mm^3. […] In particular, by day 14, dimethylation of lysine 9 of histone H3 in the tumor tissue was reduced by 46 percent as compared to the vehicle.

[7] = system: HT1080 fibrosarcoma cells; experiment: Cell viability of HT1080 fibrosarcoma cells; format: cell-based; settings: 48 h, 0-10,000 nM
[8] = Cytotoxicity, CellTiter Glo; format: cell-based; settings: human, SKBR3 cells, 5-day proliferation
[9] = Cytotoxicity, CellTiter Glo; format: cell-based; settings: human, DU145 cells, 5-day proliferation
[10] = system: human peripheral blood mononucleated cells (PBMCs); experiment: Viability of PBMCs (Caspase-Glo 3/7, CellTiter Glo); format: cell-based; settings: 0-10 uM, 48 h
Protocol: Following treatment, Caspase 3/7 activity (i.e., a marker of apoptosis) was assessed by the Caspase-Glo 3/7 assay system (FIG. 7A), and cell viability was assessed by CellTiter Glo assay (FIG. 7B).

[11] = Cytotoxicity, CellTiter Glo; format: cell-based; settings: human, MHH-65-1 cells, 7-day proliferation, neural crest derived lines
[12] = Cytotoxicity, CellTiter Glo; format: cell-based; settings: human, ZR7350 cells, 7-day proliferation, neural crest derived lines
[13] = Cytotoxicity, CellTiter Glo; format: cell-based; settings: human, IMR-32 cells, 12-day proliferation, neural crest derived lines
[14] = Cytotoxicity, CellTiter Glo; format: cell-based; settings: human, KMS12 cells, 5-day proliferation
[15] = Cytotoxicity, CellTiter Glo; format: cell-based; settings: human, OPM2 cells, 5-day proliferation
[16] = Cytotoxicity, CellTiter Glo; format: cell-based; settings: human, RS4;11 cells, 5-day proliferation
[17] = Cytotoxicity, CellTiter Glo; format: cell-based; settings: human, RPMI8226 cells, 5-day proliferation
[18] = Cytotoxicity, CellTiter Glo; format: cell-based; settings: human, SK-N-MC cells, 7-day proliferation, neural crest derived lines
[19] = Cytotoxicity, CellTiter Glo; format: cell-based; settings: human, US2OS cells, 7-day proliferation, neural crest derived lines
MV4;11 cells [20] = experiment: Combination of G9a inhibitor and ATRA on MV4;11 proliferation (CellTiter Glo); format: cell-based, human; settings: 0, 300 nM or 3 μM Example 7 with 0-100 nM ATRA, 5 days
Protocol: Cellular proliferation was determined by CellTiter Glo assay.

H3K9me2 [21] = experiment: PK/PD study, reduction in H3K9me2 in MV4;11 xenograft; format: in vivo, SCID/bg mice; settings: for reduction in H3K9me2: 30 mg/kg/day osmotic mini-pump, relative to vehicle
Description: as §1

[22] = Cytotoxicity, CellTiter Glo; format: cell-based; settings: human, THP-1 cells, 5-day proliferation
in vitro = format: cell-based; settings: PH-1; 7-day proliferation, neural crest derived lines; read-out: IC50 cytotoxicity
H3K9me2 [23] = experiment: H3K9me2 levels by AlphaLISA in HT1080 cells; format: cell-based; settings: 48 h, 0-1,000 nM
[24] = Cytotoxicity, CellTiter Glo; format: cell-based; settings: human, Kasume-1 cells, 5-day proliferation
MV4;11 cells [25] = experiment: Differentiation, proliferation, viability and cell cycle of MV4;11 cells, 14 days; format: cell-based, human
Description: MV4;11 cells are a human acute myelocytic leukemia (AML) cell line derived from a human with leukemia.

[26] = Cytotoxicity, CellTiter Glo; format: cell-based; settings: human, 22RV1 cells, 5-day proliferation
[27] = Cytotoxicity, CellTiter Glo; format: cell-based; settings: human, TC-71 cells, 7-day proliferation, neural crest derived lines
[28] = Cytotoxicity, CellTiter Glo; format: cell-based; settings: human, L-363 cells, 5-day proliferation
[29] = system: HL-60 acute promyelocytic cells; experiment: Differentiation, proliferation, viability and cell cycle of HL-60 cells, 4 days; format: cell-based; settings: 0-10 μM
Protocol: Cells were then fixed, stained with an anti-CD11b antibody and analyzed by flow cytometry (FIG. 6A).
Cell cycle analysis (PI staining) of HL-60 cells following the 4 day treatment at the indicated concentrations (i.e., 0 μM, 0.1 μM, 0.3 μM, 1 μM, 3 μM, and 10 μM) was also performed (FIG. 6C).

[30] = Cytotoxicity, CellTiter Glo; format: cell-based; settings: human, Calu6 cells, 5-day proliferation
[31] = Cytotoxicity, CellTiter Glo; format: cell-based; settings: human, DaoY cells, 7-day proliferation, neural crest derived lines
[32] = Cytotoxicity, CellTiter Glo; format: cell-based; settings: human, MV4;11 cells, 5-day proliferation

SMILES: COc1cc2c(cc1OCCCN1CCCC1)N=C(N)C21CCC1 [Example 7, 5′-methoxy-6′-(3-(pyrrolidin-1-yl)propoxy)spiro[cyclobutane-1,3′-indol]-2′-amine]
- IC50 at 5 day [1]: > 10 µM
- IC50 at 5 day [2]: > 10 µM
- IC50 at 5 day [3]: > 10 µM
- tumor growth (tumor volume) [4]: growth inhibition of the tumors
- IC50 at 5 day [5]: > 10 µM
- accumulation in tumor tissue (as well as liver and muscle tissue) [6]: significant accumulation
- cytotoxicity compared with UNC0638 [7]: reduced cytotoxicity
- IC50 at 5 day [8]: > 10 µM
- IC50 at 5 day [9]: > 10 µM
- effect on PBMC viability (Caspase 3/7 activity and CellTiter Glo) [10]: no effect on cell viability
- IC50 at 7 day [11]: > 10 µM
- IC50 at 7 day [12]: > 10 µM
- IC50 at 12 day [13]: > 10 µM
- IC50 at 5 day [14]: > 10 µM
- IC50 at 5 day [15]: > 10 µM
- IC50 at 5 day [16]: > 10 µM
- IC50 at 5 day [17]: > 10 µM
- IC50 at 7 day [18]: 9.7 µM
- IC50 at 7 day [19]: > 10 µM
- MV4;11 proliferation, combination with ATRA (MV4;11 cells [20]): additive effects on MV4;11 proliferation
- reduction in H3K9me2 (H3K9me2 [21]; Day 2): 0%
- reduction in H3K9me2 (H3K9me2 [21]; Day 7): 25%
- reduction in H3K9me2 (H3K9me2 [21]; Day 14): 46%
- reduction of dimethylation of lysine 9 of histone H3 in the tumor tissue (H3K9me2 [21]; day 14, compared to vehicle): 46%
- IC50 at 5 day [22]: > 10 µM
- IC50 at 7 day (in vitro): > 10 µM
- H3K9me2 reduction compared with UNC0638 (H3K9me2 [23]): equivalent effects on H3K9me2 reduction
- IC50 at 5 day [24]: > 10 µM
- MV4;11 cells no longer proliferating (CellTiter Glo) (MV4;11 cells [25]; 3 μM): about 100%
- viability at 3 µM (MV4;11 cells [25]; Homo sapiens, MV4-11, 336 h, 3 μM, read-out: viable MV4;11 cells (trypan blue exclusion)): ~20%
- cell cycle analysis (PI staining) (MV4;11 cells [25]; MV4;11 cells, 0-3 μM): more cells were observed to be in the subG1/G0 phase
- expression of marker CD11b by flow cytometry (differentiation) (MV4;11 cells [25]; MV4;11 cells, 0-3 μM): more cells in the population expressed the marker CD11b
- cells positive for CD11b (MV4;11 cells [25]; MV4;11 cells, 3 μM): about 90%
- IC50 at 5 day [26]: > 10 µM
- IC50 at 7 day [27]: > 10 µM
- IC50 at 5 day [28]: > 10 µM
- cell cycle analysis (PI staining) [29]: increased numbers of cells were in the G1 phase
- cell proliferation (CellTiter Glo) [29]: inhibited proliferation of the HL-60 cells
- cell viability (trypan blue exclusion) [29]: largely unaffected
- differentiation (CD11b, flow cytometry) [29]: induced differentiation of the HL-60 cells
- IC50 at 5 day [30]: > 10 µM
- IC50 at 7 day [31]: > 10 µM
- IC50 at 5 day [32]: > 10 µM
